# Reference: patent US9879029B2, “ERK inhibitors” (Eli Lilly and Company, priority 2014, dated 2018)
# Tests used:
# [1] = molecular target: T1, ERK1 (Homo sapiens, UniProt P27361); assay: ERK1 kinase assay (TR-FRET); assay type: biochemical; conditions: Abs_IC50, ATP 10 μM; ±0.608, n=16
# T1 construct: purchased Invitrogen PR5254B
# Method: The purpose of this assay is to measure the ability of compounds to inhibit ERK1 kinase activity. Perform the ERK1 kinase assay in vitro using a TR-FRET assay. […] Incubate the reaction mixture at room temperature for 60 minutes. Stop the reaction by addition of 12.5 μL of stop buffer (10 mM EDTA, 2 nM Tb-anti-pATF2 (pThr71) antibody, Invitrogen, #PV4448) in TR-FRET dilution buffer (Invitrogen, # PV3574). Incubate the plates at room temperature for an additional 60 minutes and read on an ENVISION® (PerkinElmer) plate reader at the excitation wavelength 340 nm. Calculate the TR-FRET ratio by dividing the GFP acceptor emission signal (at 520 nm) by the Tb donor emission signal (at 495 nm). Calculate percent inhibition using compound treated wells relative to on-plate Max (DMSO control) and Min (No enzyme added) control wells TR-FRET ratio data {% inhibition=100−[(test compound−median Min)/(median Max−median Min)×100]}). Test all compounds at 10 concentrations (20 μM to 0.001 μM) using a 1:3 dilution scheme. Derive Abs_IC50 values by fitting percent inhibition and ten-point concentration data to a 4-parameter nonlinear logistic equation (equation 205) using ACTIVITYBASE® 7.3 (ID Business Solutions Limited).
# [2] = molecular target: T2, ERK2 (Homo sapiens, UniProt P28482); assay: ERK2 kinase assay (TR-FRET); assay type: biochemical; conditions: Abs_IC50, ATP 10 μM; ±0.682, n=17
# T2 construct: purchased Invitrogen PV3595B
# T2 sequence (P28482 whole entry): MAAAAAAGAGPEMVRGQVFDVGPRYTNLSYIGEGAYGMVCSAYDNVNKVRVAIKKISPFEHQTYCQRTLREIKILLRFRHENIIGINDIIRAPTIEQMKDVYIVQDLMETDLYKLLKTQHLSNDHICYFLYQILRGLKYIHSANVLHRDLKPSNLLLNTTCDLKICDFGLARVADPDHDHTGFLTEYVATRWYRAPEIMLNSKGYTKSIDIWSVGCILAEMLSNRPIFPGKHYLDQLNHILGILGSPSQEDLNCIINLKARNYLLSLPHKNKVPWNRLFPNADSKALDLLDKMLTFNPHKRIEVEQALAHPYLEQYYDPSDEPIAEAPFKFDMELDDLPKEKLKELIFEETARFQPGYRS
# Method: The purpose of this assay is to measure the ability of compounds to inhibit ERK2 kinase activity. Perform the ERK2 kinase assay in vitro using a TR-FRET assay. Start all reactions (12.5 μL) by adding 5 µL of ERK2 enzyme (Invitrogen, #PV3595B, final conc 50 ng/mL) plus substrate GFP-ATF2 (Invitrogen, #PV4445, final conc 0.2 μM), 5 µL of ATP solution (Invitrogen, #PV3227, final conc 10 μM) prepared in kinase buffer (50 mM Hepes pH 7.4, 5 mM MgCl2, 0.1 mM EGTA, 0.01% Triton X-100, 1 mM DTT) and 2.5 μL of testing compounds in DMSO solution ([…], v/v) in a 384-well PROXIPLATE™ (Perkin Elmer, #GRN6260). Incubate reactions at room temperature for 60 minutes. Stop reactions by addition of […] of stop buffer (10 mM EDTA, 2 nM Tb-anti-pATF2 (pThr71) antibody, Invitrogen, #PV4448) in TR-FRET dilution buffer (Invitrogen, # PV3574). Incubate the plates at room temperature for an additional 60 minutes and read ON ENVISION® (PerkinElmer) plate reader at the excitation wavelength of 340 nm. Calculate a TR-FRET ratio by dividing the GFP acceptor emission signal (at 520 nm) by the Tb donor emission signal (at 495 nm). Calculate percent inhibition using compound wells relative to on-plate Max (DMSO control) and Min (No enzyme added) control wells TR-FRET ratio data {% inhibition=100−[(test compound−median Min)/(median Max−Min)×100]}. […]
# [3] = test system: human colorectal cancer cells HCT116; assay: Xenograft tumor model HCT116; assay type: in vivo, female athymic nude mice; conditions: oral
# Method: (§1) The purpose of this assay is to measure reduction in tumor volume in response to test compound administration. Expand human colorectal cancer cells HCT116 (ATCC, #CCL-247) or human non-small cell lung cancer cells NCI-H358 (ATCC, # CRL-5807) in culture, harvest and inject 5×10e^6 cells in 200 μL of 1:1 HBSS+matrigel solution subcutaneously on to the rear right flank of female athymic nude mice (22-25 gm, Harlan Laboratories). Expand human pancreatic cancer cells SW1990 (ATCC, # CRL-2172) in culture, harvest and inject 2×10e^6 cells in 200 μL of 1:1 HBSS+matrigel solution subcutaneously on to the rear right flank of female athymic nude mice (22-25 gm, Harlan Laboratories). Expand human pancreatic cancer cells MIA PACA-2 (ATCC, # CRL-1420) or human non-small cell lung cancer cells A549 (ATCC, # CCl-185) in culture, harvest and inject 5×10e^6 cells in 200 μL of 1:1 HBSS+matrigel solution subcutaneously on to the rear right flank of female CB-17 SCID mice (22-25 gm, Charles River Laboratories International Inc.). Expand human melanoma cells A-375 (ATCC, # CRL-1619) in culture, harvest and inject 5×10e^6 cells in 200 μL of 1:1 HBSS+matrigel solution subcutaneously on to the rear right flank of female NIH nude rats (140-160 gm, Taconic Farms). Measure tumor growth and body weight twice per week beginning the seventh day after the implantation. When tumor sizes reach 200-400 mm^3, randomize animals and group into groups of eight to ten animals. Prepare test compound in an appropriate vehicle (vehicle: 1% HEC/0.25% Tween 80/0.05% Antifoam) and administer by oral gavage for 14 to 28 days. Tumor response is determined by tumor volume measurement performed twice a week during the course of treatment.
# [4] = test system: human pancreatic cancer cells MIA PACA-2; assay: Xenograft tumor model MIA PACA-2; assay type: in vivo, female CB-17 SCID mice; conditions: oral, p <0.001
# Method: as §1
# [5] = test system: CALU-6; assay: Xenograft tumor model CALU-6; assay type: in vivo; conditions: oral
# [6] = test system: human non-small cell lung cancer cells NCI-H358; assay: Xenograft tumor model NCI-H358; assay type: in vivo, female athymic nude mice; conditions: oral, p <0.001
# Method: as §1, with “Measure tumor growth and body weight twice per week beginning the seventh day after the implantation. When tumor sizes reach 200-400 mm^3, randomize animals and group into groups of eight to ten animals. Prepare test compound in an appropriate vehicle (vehicle: 1% HEC/0.25% Tween 80/0.05% Antifoam) and administer by oral gavage for 14 to 28 days.” left out
# [7] = test system: human non-small cell lung cancer cells A549; assay: Xenograft tumor model A549; assay type: in vivo, female CB-17 SCID mice; conditions: oral
# Method: as §1, with “Measure tumor growth and body weight twice per week beginning the seventh day after the implantation. When tumor sizes reach 200-400 mm^3, randomize animals and group into groups of eight to ten animals. Prepare test compound in an appropriate vehicle (vehicle: 1% HEC/0.25% Tween 80/0.05% Antifoam) and administer by oral gavage for 14 to 28 days.” left out
# T1 sequence (P27361 whole entry): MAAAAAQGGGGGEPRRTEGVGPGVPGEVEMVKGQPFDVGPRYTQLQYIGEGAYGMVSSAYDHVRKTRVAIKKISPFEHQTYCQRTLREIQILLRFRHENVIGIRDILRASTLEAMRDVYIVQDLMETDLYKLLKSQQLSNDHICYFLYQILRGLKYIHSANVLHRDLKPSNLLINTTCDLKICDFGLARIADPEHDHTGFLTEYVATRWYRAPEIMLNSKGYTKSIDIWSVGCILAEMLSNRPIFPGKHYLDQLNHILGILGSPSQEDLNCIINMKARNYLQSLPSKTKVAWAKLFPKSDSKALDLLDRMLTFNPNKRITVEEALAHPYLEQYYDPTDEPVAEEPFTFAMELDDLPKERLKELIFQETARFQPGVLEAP
smiles,measurement,setting,value
"COCCN1C(=O)c2cc(-c3ccnc(Nc4ccnn4C)c3)sc2C1(C)C [Example 1, 5-(2-Methoxyethyl)-6,6-dimethyl-2-{2-[(1-methyl-1H-pyrazol-5-yl)amino]pyridin-4-yl}-5,6-dihydro-4H-thieno[2,3-c]pyrrol-4-one]",IC50,[1],1.5 nM
same,IC50,[2],1.93 nM
same,Delta T/C (%),"[3]; HCT116, 10 mg/kg BID, p 0.023",55%
same,Delta T/C (%),"[3]; HCT116, 25 mg/kg BID, p <0.001",89%
same,Regression (%),"[3]; HCT116, 50 mg/kg BID, p <0.001",−31%
same,Delta T/C (%),"[3]; HCT116, 50 mg/kg QD, p <0.001",83%
same,Delta T/C (%),"[3]; HCT116, 75 mg/kg QD, p <0.001",98%
same,Delta T/C (%),"[4]; MIA PACA-2, 10 mg/kg BID",76%
same,Regression (%),"[4]; MIA PACA-2, 25 mg/kg BID",−15%
same,Delta T/C (%),"[4]; MIA PACA-2, 25 mg/kg QD",74%
same,Regression (%),"[4]; MIA PACA-2, 50 mg/kg BID",−72%
same,Delta T/C (%),"[4]; MIA PACA-2, 50 mg/kg QD",97%
same,Regression (%),"[4]; MIA PACA-2, 75 mg/kg QD",−39%
same,Delta T/C (%),"[5]; CALU-6, 10 mg/kg BID, p 0.013",44%
same,Regression (%),"[5]; CALU-6, 25 mg/kg BID, p <0.001",−10%
same,Delta T/C (%),"[5]; CALU-6, 25 mg/kg QD, p 0.010",46%
same,Regression (%),"[5]; CALU-6, 50 mg/kg BID, p <0.001",−75%
same,Delta T/C (%),"[5]; CALU-6, 50 mg/kg QD, p <0.001",92%
same,Regression (%),"[5]; CALU-6, 75 mg/kg QD, p <0.001",−38%
same,Regression (%),"[6]; NCI-H358, 25 mg/kg BID",−13%
same,Regression (%),"[6]; NCI-H358, 50 mg/kg BID",−35%
same,Delta T/C (%),"[7]; A549, 10 mg/kg BID, p 0.471",13%
same,Delta T/C (%),"[7]; A549, 30 mg/kg BID, p <0.001",66%
